Source: ChEMBL document CHEMBL1140684, “Phenylimidazole derivatives as new inhibitors of bacterial enoyl-ACP reductase FabK” (Bioorg Med Chem Lett, 2007)
Converted amounts (≈) assume the structure as drawn.

Tests used:
[1] = target: T1, Enoyl-(Acyl-carrier-protein) reductase (Streptococcus pneumoniae, UniProt Q9FBC5); assay: Inhibition of Streptococcus pneumoniae KU197 FabK
T1 sequence (Q9FBC5 whole entry): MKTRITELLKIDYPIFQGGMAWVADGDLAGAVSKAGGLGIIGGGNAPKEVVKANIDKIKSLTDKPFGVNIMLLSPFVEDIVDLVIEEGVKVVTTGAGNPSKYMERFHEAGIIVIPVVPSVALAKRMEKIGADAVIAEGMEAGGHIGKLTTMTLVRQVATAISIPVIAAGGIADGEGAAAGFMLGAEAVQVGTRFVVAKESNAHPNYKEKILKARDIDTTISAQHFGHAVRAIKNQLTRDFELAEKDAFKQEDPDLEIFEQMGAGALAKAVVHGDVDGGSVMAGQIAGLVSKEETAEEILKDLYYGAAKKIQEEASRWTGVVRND

Streptococcus pneumoniae = assay: Antibacterial activity against Streptococcus pneumoniae KU197; type: functional
[2] = Inhibition of Escherichia coli FabI

Row | SMILES | IC50 [1] [µM] | MIC (Streptococcus pneumoniae) [µg/mL] | IC50 [2] [µM]
1 | CS(=O)(=O)c1ccc2nc(NC(=O)NCc3cccnc3)sc2c1 | 24 | > 32 | –
2 | CS(=O)(=O)c1ccc2nc(NC(=O)NCc3nc4ccccc4[nH]3)sc2c1 | 0.76 | 4 (≈ 9.96 µM) | > 32
3 | CS(=O)(=O)c1ccc2nc(NC(=O)NCc3nc(-c4ccccc4)c[nH]3)sc2c1 | 0.14 | 0.5 (≈ 1.17 µM) | > 32
4 | O=C(NCc1nc2ccccc2[nH]1)Nc1nc2ccccc2s1 | 28 | 32 (≈ 99 µM) | > 32
5 | CS(=O)(=O)c1ccc2nc(NC(=O)NCc3cccs3)sc2c1 | 24 | > 32 | –
6 | Nc1nc2ccc(C(=O)O)cc2s1 | > 32 | – | –
7 | COc1ccc2nc(NC(=O)NCc3nc4ccccc4[nH]3)sc2c1 | 7.6 | 16 (≈ 45.3 µM) | > 32

More lines, main results first:

Row | IC50 [1] [µM] | MIC (Streptococcus pneumoniae) [µg/mL] | SMILES | IC50 [2] [µM]
8 | > 32 | > 32 | O=C(Nc1nc2ccccc2s1)OCc1nc2ccccc2[nH]1 | –
9 | > 32 | – | COc1cccc2sc(NC(=O)NCc3nc4ccccc4[nH]3)nc12 | > 32
10 | > 32 | – | COc1ccc2sc(NC(=O)NCc3nc4ccccc4[nH]3)nc2c1 | > 32
11 | > 32 | > 32 | O=C(CSc1nc2ccccc2[nH]1)Nc1nc2ccc(C(=O)O)cc2s1 | –
12 | > 32 | > 32 | O=C(CSc1nc2ccccc2[nH]1)Nc1nc2ccccc2s1 | –
13 | > 32 | – | O=C(O)CSc1nc2ccccc2[nH]1 | –
